# Assay results reported in US7176281B2 (priority 2003, dated 2007).
# Where a SMILES comes first, the peptide text is derived from it.
# Experiments:
# serum sPLA2 = test: Serum sPLA2 levels in Tg197 mice, E. coli membrane assay; format: in vivo, mouse; conditions: 3–4 weeks post-treatment
# Experimental: Serum of transgenic (Tg197) mice and non-transgenic wild type controls were measured for sPLA2 using an Escherichia coli (E. coli) membrane assay as described previously [Eur J Biochem 2002, 269:719–727]. In brief, [^3H] arachidonate-labeled E. coli membrane suspension (5.8 μCi/μmol, Perkin Elmer, USA) was used as substrate, and 25 mM CaCl2-100 mM Tris-HCl (pH 7.5) as assay buffer. The reaction mixture containing substrate (20 μl), and either purified human synovial sPLA2 standard (1–80 ng/ml, Cayman, USA) or serum (10 μl) in a final volume of 250 μl in assay buffer was incubated at 37° C. for 1 h, and the reaction terminated with 750 μl of chilled PBS containing 1% BSA. 500 μl aliquots of the supernatant were then taken to measure the amount of [^3H] arachidonate released from the E. coli membrane using liquid scintillation counting (Beckman LS 6500 Scintillation Counter). The amount of sPLA2 present in the serum was calculated from the standard curve, and is expressed as ng/ml±SEM.
# FIG. 12 depicts time course of serum sPLA2 levels. Serum sPLA2 levels were measured with an E. coli membrane assay in blood samples collected from untreated, P-NT.I- and scrambled P-NT.II-treated Tg197 mice at weekly intervals. Values are the mean±SD (n=4/group). […]
# sPLA2 = test: Inhibition of sPLA2 activity at fixed concentrations; format: biochemical
# [1] = system: Tg197 transgenic mice (chronic inflammatory polyarthritis); test: Tg197 transgenic mouse arthritis model, experiment 2 (4 weeks, time course); format: in vivo
# Experimental: In experiment 2, mice were divided into 6 groups (A–F), and were injected i.p with 3 weekly doses (150 μg peptide in 50 μL DMSO per dose) of either the test peptide P-NT.II or the control peptide with the scrambled sequence for 4 consecutive weeks. Tg197 mice in Group B (n=18) were further divided into 4 sub-groups (B1, B2, B3, B4). At the end of 1st week, four Tg197 mice from Group B (sub-group B1) were sacrificed and both hind legs taken for histological processing and scorings. The remaining Tg197 mice from the other sub-groups B were continued with 3 regular doses of injections per week, and four Tg197 mice from each sub-group B2 and B3, were sacrificed at the end of 2nd and 3rd weeks, respectively. At the end of 4th week, all remaining Tg197 mice ([…]) were sacrificed for collection of joint specimens.
# Disease monitoring was done by gross observations based on body weight measurements and arthritis scoring, which were done twice weekly after treatment until all the animals were sacrificed at 5th week in experiment 1, or at 4th week in experiment 2. Arthritis score (AS) was recorded on both ankle joints, and average scores as shown below were taken: • 0=no arthritis (normal appearance and flexion); • 0.5=onset of arthritis (mild joint swelling); • 1.0=mild arthritis (joint distortion); • 1.5=as above+finger deformation, less strength on flexion; • […]=moderate arthritis (severe swelling, joint deformation, no strength on flexion); • 2.5=as above+finger deformation in paws; • 3.0=heavy arthritis (ankylosis detected on flexion and severely impaired movement).
# For histopathological scoring, both hind legs were dissected and fixed in 10% formaldehyde overnight, decalcified in citrate-buffered formic acid for 3 days at 4° C., and processed for light microscopy (LM). • Histopathological score (HS) was evaluated as follows: • 0=no detectable pathology, • 1=hyperplasia of the synovial membrane and presence of polymorphonuclear infiltrates • 2=pannus and fibrous tissue formation and focal subchondrial bone erosion • 3=articular cartilage destruction and bone erosion • 4=articular cartilage destruction and extensive bone erosion.
# Transmission electron microscopy (TEM): Ankle joints dissected from the left hind leg of each mouse were split open longitudinally through the midline between the tibia and the talus, prefixed overnight with 2.5% glutaraldehyde in phosphate buffer, pH 7.4 (PB) and rinsed with PB. After fixing with 1% osmium tetroxide in PB for 2 h, they were dehydrated in a graded series of ethanol and processed into Araldite. Semi-thin sections (1.0μ) were cut and stained with methylene blue to observe the orientation and for histopathological scorings under the light microscope. Ultra-thin sections (80–90 nm) were then cut with an ultramicrotome (Riechert-Jung Ultracut E), mounted on copper grids, counterstained with uranyl acetate and lead citrate, and evaluated under electron microscope (CM120 Biotwin, FEI Company).
# Anti-inflammatory activity of the candidate peptide P-NT.II was examined as a new treatment option for modulating rheumatoid arthritis (RA) in a transgenic animal model. To evaluate the potential effectiveness of the peptide as prophylaxis against RA, two separate experiments were performed in 4 week-old transgenic (Tg197) mice and non-transgenic wild-type (wt) mice. These transgenic mice (Tg197) express human tumor necrosis factor (TNFα), a cytokine which has been implicated in the pathogenesis of human RA.
# [2] = system: murine macrophage cell line J774; test: LPS- or TNF-induced PGE2 production in J774 macrophages; format: cell-based, mouse; conditions: J774 cells, 20 h
# Experimental: The murine macrophage cell line J774 (ATCC, USA) was cultured at 37° C. in humidified 5% CO2/95% air in Dulbecco's Modified Eagle's Medium (DMEM) containing 10% foetal bovine serum, 2 mM glutamine, 20 mM Hepes, 100 Ul/ml penicillin and 100 μg/ml streptomycin. After growing to confluence, the cells were dislodged by scrapping, plated in 12 culture wells at a density of 5×10^5 cells/ml per well, and allowed to adhere for 2 h. […] Culture medium supernatants were collected after centrifugation (10,000 g, 4° C., 15 min) and stored at −80° C. prior to measurement of PGE2, which was done according to the manufacturer's instructions (EIA kit-monoclonal, Cayman Chemical, USA).
# FIGS. 13A and 13B show modulation of LPS- and TNF-stimulated PGE2 release. […] Supernatants were collected, and PGE2 release in the medium was determined by ELISA. Results are shown as the mean±SEM of 5 experiments performed in duplicate. **P<0.01 between inhibitor-treated and untreated cultures.
# [3] = system: organotypic hippocampal slice cultures; test: Kainate-induced injury in organotypic hippocampal slice cultures, GluR1 immunoreactivity
smiles,measurement,setting,value
CC[C@H](C)[C@H](NC(=O)[C@H](Cc1ccc(O)cc1)NC(=O)[C@@H](NC(=O)CNC(=O)[C@H](CC(=O)O)NC(=O)[C@H](Cc1c[nH]c2ccccc12)NC(=O)[C@@H](NC(=O)[C@H](Cc1c[nH]cn1)NC(=O)[C@@H](NC(=O)[C@H](CC(=O)O)NC(=O)[C@@H](NC(=O)[C@H](CCCNC(=N)N)NC(=O)CNC(=O)[C@@H](N)CC(C)C)C(C)C)[C@@H](C)CC)C(C)C)C(C)C)C(=O)N[C@@H](CCCNC(=N)N)C(=O)NCC(=O)N[C@@H](CCCNC(=N)N)C(=O)O [P-NT.II] (H-LGRVDIHVWDGVYIRGR-OH; N-terminus and C-terminus assumed),circulating sPLA2 compared with untreated mice,serum sPLA2,significantly suppressed
same,inhibition of sPLA2 activity,sPLA2; 6 μM,80%
same,inhibition of sPLA2 activity,sPLA2; 10 μM,90%
same,"% of total at indicated HS scores, HS 2",[1]; 1 wk treatment,100%
same,"% of total at indicated HS scores, HS 3",[1]; 1 wk treatment,0%
same,"% of total at indicated HS scores, HS 4",[1]; 1 wk treatment,0%
same,Mean HS ± SEM,[1]; 1 wk treatment,2.12 ± 0.12
same,HS compared to untreated or scrambled peptide treated group,[1]; 1–4 weeks,significantly reduced HS
same,ultrastructural features of the articular chondrocytes (TEM),[1]; 1–4 weeks post-treatment,did not significantly differ from those seen in the joints of normal wildtype mice
same,"% of total at indicated HS scores, HS 2",[1]; 2 wk treatment,100%
same,"% of total at indicated HS scores, HS 3",[1]; 2 wk treatment,0%
same,"% of total at indicated HS scores, HS 4",[1]; 2 wk treatment,0%
same,Mean HS ± SEM,[1]; 2 wk treatment,2.37 ± 0.12
same,"% of total at indicated HS scores, HS 2",[1]; 3 wk treatment,75%
same,"% of total at indicated HS scores, HS 3",[1]; 3 wk treatment,25%
same,"% of total at indicated HS scores, HS 4",[1]; 3 wk treatment,0%
same,Mean HS ± SEM,[1]; 3 wk treatment,2.50 ± 0.20
same,"HS of synovitis, cartilage degradation and bone erosion","[1]; 4 weeks post-treatment, n=4/group",protective effect
same,"% of total at indicated HS scores, HS 2",[1]; 4 wk treatment,75%
same,"% of total at indicated HS scores, HS 3",[1]; 4 wk treatment,25%
same,"% of total at indicated HS scores, HS 4",[1]; 4 wk treatment,0%
same,Mean HS ± SEM,[1]; 4 wk treatment,2.62 ± 0.31
same,number of inflammatory cells in the synovium,[1]; as early as 1 week after initiation of treatment,reduced
same,joints either normal or only mildly affected by arthritis,[1]; first two weeks after peptide treatment,100%
same,chondrocyte necrobiosis as well as bone erosions,[1]; histopathologic analysis of joints,significantly reduced
same,joints either normal or only mildly affected by arthritis,[1]; last two weeks after peptide treatment,75%
same,LPS- or TNF-induced PGE2 production,[2],dose-dependently inhibit
same,GluR1 immunoreactivity of pyramidal neurons after kainate,[3]; 10 μM added before kainate,significantly prevented the decrease in GluR1 immunoreactivity
same,protection against kainite lesioned hippocampal slices,[3]; 6–10 μM,almost complete protection
